Measurements from patent US20220000117A1, “METHOD FOR CONTROLLING DISEASES IN SMALL GRAIN CEREALS, SEED OF SMALL GRAIN CEREALS, AND METHOD FOR SUPPRESSING LODGING DAMAGE IN SMALL GRAIN CEREALS” (KUMIAI CHEMICAL INDUSTRY CO., LTD., priority 2019, published 2022).

Columns and labels:
[1] = system: wheat (variety: Norin No. 61); assay: Test Example 4: emergence rate of wheat seed; type: in vivo
Procedure: Seed having a mass of 1 kg of wheat (variety: Norin No. 61) was mixed into 100 ml of suspension water containing 0.5 g of the above compound (6) or compound (3) (synthesis was performed in accordance with a known method, formulated 10% wettable powder was used) and air-dried, and then, 12 seeds were sown in a plastic cup having a diameter of 6 cm containing river sand and managed in a greenhouse. The number of emerged seeds was investigated nine days after seeding, and an emergence rate was calculated (Examples 10 and 11). In Comparative Example 11 and Comparative Example 12, 20 ml of suspension water of an active ingredient, which had been adjusted to have a concentration shown in Table 5, was sprayed in a frame of 45 cm×45 cm in which a pot of wheat seedlings was placed (corresponding to 1000 L/ha) 15 days after seeding. On day 15 after seeding, conidiospores of powdery mildew were sifted over leaves of wheat seedlings and inoculated onto the leaves (after the sprayed liquid was dried in the case of Comparative Examples), a lesion area ratio of powdery mildew in a first leaf was investigated 22 days after seeding according to the criteria in Table 1, and the degree of disease occurrence was calculated by the above calculation formula (1).

[2] = system: powdery mildew; assay: Test Example 1: control test of wheat powdery mildew, field, wheat variety Haruyutaka; type: in vivo, Blumeria graminis; conditions: for Degree of Disease Occurrence / Disease Leaf Rate (%): flag leaves, 79 days after seeding
Procedure: Seed of wheat (variety: Haruyutaka) sterilized in advance with commercial Benlate T wettable powder 20 (“Benlate” is a registered trademark) was used. In Example 1, seed having a mass of 1 kg was mixed into 100 ml of suspension water containing 5 g of dichlobentiazox, air-dried, and then, stripe-sown in a field with a furrow width of 30 cm and a ratio of 163 kg/ha (417 seeds/m^2). In contrast, in Comparative Example 1, seed which had not treated with dichlobentiazox was sown in a field in the same manner, and a spray solution corresponding to that obtained by suspending 500 g of dichlobentiazox in 200 liters of water per 1 ha was sprayed on foliage of wheat three times, during an ear emergence period (63 days after seeding), a flowering period (70 days after seeding), and a flowering end period (77 days after seeding). Similarly, in place of 500 g of dichlobentiazox in Comparative Example 1, 250 g of azoxystrobin (commercial Amistar 20 flowable was used. “Amistar” is a registered trademark) was used in Comparative Example 2, and 125 g of propiconazole (commercial Tilt emulsifiable concentrate 25 was used, “Tilt” is a registered trademark) was used in Comparative Example 3. The presence or absence of disease occurrence and a lesion area ratio of powdery mildew in flag leaves of 30 stems were investigated 79 days after seeding according to the criteria in Table 1, and a disease leaf rate and the degree of disease occurrence were calculated by the following calculation formula (1).
(§1) Degree of Disease Occurrence=Σ(Index×Number of Leaves of Index)/(4×Number of Investigated Leaves)×100 (1)

[3] = system: powdery mildew; assay: Test Example 2: control test of wheat powdery mildew, pot in greenhouse, inoculated, wheat variety Norin No. 61; type: in vivo, Blumeria graminis; conditions: for Degree of Disease Occurrence: inoculated day 49, first leaf, 59 days after seeding
Procedure: as §1
(§2) Seed having a mass of 1 kg of wheat (variety: Norin No. 61) was mixed into 100 ml of suspension water containing 5 g or 0.5 g of dichlobentiazox or isotianil (commercial Routine flowable was used, “Routine” is a registered trademark) and air-dried, and then, 15 seeds were sown in a plastic pot of 9 cm×9 cm containing horticultural soil and managed in a greenhouse. The number of emerged seeds was investigated 10 days after seeding, and an emergence rate was calculated (Examples 2 to 5). On day 49 after seeding, conidiospores of powdery mildew were sifted over leaves of wheat seedlings and inoculated onto the leaves, a lesion area ratio of powdery mildew in a first leaf was investigated 59 days after seeding according to the criteria in Table 1, and the degree of disease occurrence was calculated by the above calculation formula (1).

[4] = system: wheat (variety: Norin No. 61); assay: Test Example 3: emergence rate of wheat seed; type: in vivo
Procedure: (§3) Seed having a mass of 1 kg of wheat (variety: Norin No. 61) was mixed into 100 ml of suspension water containing 5 g or 0.5 g of dichlobentiazox or isotianil and air-dried, and then, 12 seeds were sown in a plastic cup having a diameter of 6 cm containing river sand and managed in a greenhouse. The number of emerged seeds was investigated nine days after seeding, and an emergence rate was calculated (Examples 6 to 9). In Comparative Examples 6 to 9, 20 ml of suspension water of an active ingredient, which had been adjusted to have a concentration shown in Table 4, was sprayed in a frame of 45 cm×45 cm in which a pot of wheat seedlings was placed (corresponding to 1000 L/ha) 14 days after seeding. On day 14 after seeding, conidiospores of powdery mildew were sifted over leaves of wheat seedlings and inoculated onto the leaves (after the sprayed liquid was dried in the case of Comparative Examples), a lesion area ratio of powdery mildew in a first leaf was investigated 19 days after seeding according to the criteria in Table 1, and the degree of disease occurrence was calculated by the above calculation formula (1).

[5] = system: wheat (variety: Haruyutaka); assay: Test Example 6: evaluation test of shortening of wheat (culm length, seed yield), field; type: in vivo
[6] = system: powdery mildew; assay: Test Example 3: control test of wheat powdery mildew, cup in greenhouse, inoculated; type: in vivo, Blumeria graminis; set-up: key to Degree of Disease Occurrence: Σ(index×no. leaves of index)/(4×no. investigated leaves)×100; conditions: for Degree of Disease Occurrence: 19 days after seeding
Procedure: as §1, §3

[7] = system: wheat (variety: Norin No. 61); assay: Test Example 2: emergence rate of treated wheat seed; type: in vivo; conditions: 10 days after seeding
Procedure: as §2

[8] = Foliage Spray group, 50 ppm (50 g/ha) 15 days after seeding, emergence counted nine days after seeding
[9] = Seed Treatment 0.5 g/Seed 1 kg (50 g/ha), nine days after seeding
[10] = Foliage Treatment, spray 500 g/ha three times
[11] = Seed Treatment 5 g/Seed 1 kg (815 g/ha)
[12] = Seed Treatment 0.5 g/Seed 1 kg (50 g/ha)
[13] = Seed Treatment 5 g/Seed 1 kg (500 g/ha)

Question: `OCc1snc(Cl)c1Cl` [Compound (3)] was tested. Which “Emergence Rate (%)” value [1, 8] did it give?
Answer: 97.2%

Question: What about the “Emergence Rate (%)” value [1, 9] of the same compound?
Answer: 97.2%

Question: Which “disease occurrence of powdery mildew, seed treatment compared with foliage spraying of dichlobentiazox (Comparative Example 1)” value ([2]; Example 1, seed treatment) does the source give for `O=S1(=O)N=C(OCc2snc(Cl)c2Cl)c2ccccc21` [Compound (1), Dichlobentiazox] here?
Answer: more suppressed

Question: And the “Degree of Disease Occurrence” value [2, 10]?
Answer: 12.6

Question: What about the “Disease Leaf Rate (%)” value [2, 10] of the same compound?
Answer: 58.9%

Question: What about the “Degree of Disease Occurrence” value [2, 11] of the same compound?
Answer: 0.6

Question: What about the “Disease Leaf Rate (%)” value [2, 11] of the same compound?
Answer: 4.4%

Question: What about the “disease occurrence of powdery mildew, seed treatment compared with foliage spraying of azoxystrobin and propiconazole (Comparative Examples 2 and 3)” value ([2]; seed treatment) of the same compound?
Answer: more suppressed

Question: And the “Degree of Disease Occurrence” value [3, 12]?
Answer: 10.7

Question: What about the “Degree of Disease Occurrence” value [3, 13] of the same compound?
Answer: 0.0

Question: And the “disease occurrence under artificial inoculation of powdery mildew” value ([3]; seed treatment)?
Answer: the disease occurrence was suppressed

Question: What about the “Emergence Rate (%)” value ([4]; Foliage Treatment group, spray 50 ppm (50 g/ha) 14 days after seeding, emergence counted nine days after seeding) of the same compound?
Answer: 100%

Question: What about the “Emergence Rate (%)” value ([4]; Foliage Treatment group, spray 500 ppm (500 g/ha) 14 days after seeding, emergence counted nine days after seeding) of the same compound?
Answer: 97%

Question: What about the “Emergence Rate (%)” value [4, 9] of the same compound?
Answer: 97%

Question: What about the “Emergence Rate (%)” value ([4]; Seed Treatment 5 g/Seed 1 kg (500 g/ha), nine days after seeding) of the same compound?
Answer: 100%

Question: And the “Culm Length (cm)” value ([5]; Dichlobentiazox Seed Treatment 5 g/Seed 1 kg plus Propiconazole foliage spray 120 g/ha four times, harvested 106 days after seeding)?
Answer: 80.1 cm

Question: And the “Seed Yield” value ([5]; Dichlobentiazox Seed Treatment 5 g/Seed 1 kg plus Propiconazole foliage spray 120 g/ha four times, wheat in 3 m2, 106 days after seeding)?
Answer: 1015 g

Question: What about the “culm length in harvesting time, compared with no seed treatment” value ([5]; seed treatment) of the same compound?
Answer: slightly shorter

Question: What about the “yield amount of wheat grains, compared with no seed treatment” value ([5]; seed treatment) of the same compound?
Answer: slightly higher

Question: And the “Degree of Disease Occurrence” value ([6]; Foliage Treatment, spray 50 ppm suspension water (50 g/ha) day 14, first leaf)?
Answer: 52.8

Question: What about the “Degree of Disease Occurrence” value ([6]; Foliage Treatment, spray 500 ppm suspension water (500 g/ha) day 14, first leaf) of the same compound?
Answer: 44.4

Question: What about the “Degree of Disease Occurrence” value ([6]; Seed Treatment 0.5 g/Seed 1 kg (50 g/ha), inoculated day 14, first leaf) of the same compound?
Answer: 10.1

Question: And the “Degree of Disease Occurrence” value ([6]; Seed Treatment 5 g/Seed 1 kg (500 g/ha), inoculated day 14, first leaf)?
Answer: 9.0

Question: What about the “disease occurrence of powdery mildew, seed treatment compared with spraying on foliage during a growing period” value ([6]; seed treatment) of the same compound?
Answer: suppressed lower

Question: What about the “Emergence Rate (%)” value [7, 12] of the same compound?
Answer: 100%

Question: And the “Emergence Rate (%)” value [7, 13]?
Answer: 96%

Question: Which “Emergence Rate (%)” value [1, 8] does the source give for `O=C(O)c1snc(Cl)c1Cl` [Compound (6)] here?
Answer: 100%

Question: What about the “Emergence Rate (%)” value [1, 9] of the same compound?
Answer: 97.2%
